Measured values as given in paper PMC9317966, “Structure-function analysis of the AMPK activator SC4 and identification of a potent pan AMPK activator” (Biochemical Journal, 2022).
pEC50: −log10 of the molar value.

Assays:
γ1AMPK complexes = experiment: Radiolabel kinase assay, immobilised GST-tagged γ1AMPK (stated across γ1 complexes); type: biochemical, human
Text: We directly compared in vitro potencies of pan activators by performing radiolabel kinase assays with γ1AMPK complexes. Initially, we used GST-tagged γ1AMPK expressed in HEK293T/17 cells and immobilised on glutathione-Sepharose (Figure 2 and Table 2). […] These assays used AMPK purified from Sf9 insect cells or E. coli that was pre-treated with CaMKK2. […] However, relative to immobilised GST-α2β1γ1 from HEK293T/17 cells, His-tagged and myristoylated α2β1γ1 AMPK (expressed in E. coli, CaMKK2-treated and assayed in solution) was at least 10-fold more sensitive to activation by both MK-8722 and MSG011 (Supplementary Figure S3B), indicating the GST-affinity tag or CaMKK2 treatment may exert some influence on sensitivity to these activators.
(§1) Adherent HEK293T/17 cells at ∼50% confluency were triply transfected with full-length AMPK α1 or α2 (NH2-terminal GST fusion, pDEST27 vector), β1 or β2 (COOH-terminal FLAG fusion, pcDNA3.1 vector), and γ1, γ2 or γ3 (NH2-terminal HA fusion, pMT2 vector) in the presence of FuGENE HD transfection reagent (Promega) as per the manufacturers protocol. Cells were harvested 48 hours post-transfection by first gently washing in ice cold phosphate buffered saline (PBS; Sigma–Aldrich), then scraping in ice cold lysis buffer (50 mM TRIS pH 7.5, 150 mM NaCl, 10% (v/v) glycerol, 50 mM NaF, 5 mM sodium pyrophosphate, 1% (v/v) Triton X-100, cOmplete protease inhibitor cocktail). Lysates were clarified by centrifugation (16 000g, 3 min, 4°C), flash frozen in liquid N2 and stored at −80°C until analysis. For radioactive kinase assays, AMPK was immobilised on glutathione Sepharose 4B resin (GE Healthcare) by incubation with lysates for 1.5 h at 4°C. Following centrifugation (1000g, 3 min, 4°C), the resin was washed twice in purification buffer (50 mM HEPES pH 7.4, 150 mM NaCl, 10% (v/v) glycerol, 0.02% (v/v) Tween-20), once in 50 mM HEPES pH 7.4 with 0.02% (v/v) Tween-20, then resuspended to a 50% slurry with 50 mM HEPES pH 7.4 and 10 µl added to the activity assays. For in solution kinase assays, α1β1γ1 AMPK was eluted from glutathione-Sepharose by incubating with purification buffer supplemented with 40 mM reduced glutathione (Sigma–Aldrich).
AMPK activity was determined by phosphorylation of the SAMS peptide (Purar Chemicals, sequence: NH2-HMRSAMSGLHLVKRR-COOH) in a 25 µl reaction volume containing 100 µM SAMS peptide, 5 mM MgCl2, 200 µM ATP, [γ-^32P]-ATP (PerkinElmer) and assay buffer (50 mM HEPES pH 7.4, 1 mM DTT and 0.02% (v/v) Tween-20) and purified AMPK. […] Ultima Gold liquid scintillation fluid (5 ml; PerkinElmer) was added to vials containing dried phosphocellulose papers, and the level of ^32P-transfer to the SAMS peptide was determined using a Tri-Carb 2900TR liquid scintillation counter (PerkinElmer).

human GST-AMPK α1β1γ1 = molecular target: T1, human GST-AMPK α1β1γ1 (Homo sapiens, UniProt Q13131+Q9Y478); experiment: Radiolabel SAMS kinase assay, GST-AMPK from HEK293T/17 cells immobilised on glutathione-Sepharose; type: biochemical; conditions: for Max. fold activation: immobilised α1β1γ1; for pEC50: immobilised α1β1γ1, 0–30 µM activator
T1 construct: triply transfected with full-length AMPK α1 or α2 (NH2-terminal GST fusion, pDEST27 vector); full-length AMPK α1 or α2 (NH2-terminal GST fusion, pDEST27 vector), β1 or β2 (COOH-terminal FLAG fusion, pcDNA3.1 vector); FLAG (C); made in house; host or cells: HEK293T/17 cells, transient triple transfection
T1 sequence (Q13131 whole entry, the tested form may be a part): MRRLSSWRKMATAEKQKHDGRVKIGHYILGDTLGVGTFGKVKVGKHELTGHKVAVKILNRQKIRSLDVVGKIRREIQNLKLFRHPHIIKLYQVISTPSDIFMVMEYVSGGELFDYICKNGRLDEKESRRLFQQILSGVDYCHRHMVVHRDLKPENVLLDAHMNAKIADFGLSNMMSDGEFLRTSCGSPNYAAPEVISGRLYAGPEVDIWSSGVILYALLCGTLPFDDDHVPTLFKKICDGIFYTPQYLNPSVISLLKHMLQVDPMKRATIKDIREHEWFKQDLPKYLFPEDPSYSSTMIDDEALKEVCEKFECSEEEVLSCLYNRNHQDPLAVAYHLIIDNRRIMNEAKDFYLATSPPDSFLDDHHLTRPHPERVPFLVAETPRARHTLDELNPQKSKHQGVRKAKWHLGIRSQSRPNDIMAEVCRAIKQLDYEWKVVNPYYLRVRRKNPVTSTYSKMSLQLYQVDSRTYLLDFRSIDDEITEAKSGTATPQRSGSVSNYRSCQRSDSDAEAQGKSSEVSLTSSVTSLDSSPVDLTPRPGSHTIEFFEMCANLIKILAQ
T1 sequence (Q9Y478 whole entry, the tested form may be a part): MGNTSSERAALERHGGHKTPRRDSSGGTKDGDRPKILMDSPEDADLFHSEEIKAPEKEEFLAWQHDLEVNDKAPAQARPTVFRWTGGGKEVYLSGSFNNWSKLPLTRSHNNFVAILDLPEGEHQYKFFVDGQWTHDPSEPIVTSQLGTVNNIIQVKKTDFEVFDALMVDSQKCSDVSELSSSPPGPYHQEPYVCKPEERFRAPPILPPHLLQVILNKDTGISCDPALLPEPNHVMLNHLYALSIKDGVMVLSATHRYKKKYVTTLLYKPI
T1 sequence (P54619 whole entry partner, the tested form may be a part): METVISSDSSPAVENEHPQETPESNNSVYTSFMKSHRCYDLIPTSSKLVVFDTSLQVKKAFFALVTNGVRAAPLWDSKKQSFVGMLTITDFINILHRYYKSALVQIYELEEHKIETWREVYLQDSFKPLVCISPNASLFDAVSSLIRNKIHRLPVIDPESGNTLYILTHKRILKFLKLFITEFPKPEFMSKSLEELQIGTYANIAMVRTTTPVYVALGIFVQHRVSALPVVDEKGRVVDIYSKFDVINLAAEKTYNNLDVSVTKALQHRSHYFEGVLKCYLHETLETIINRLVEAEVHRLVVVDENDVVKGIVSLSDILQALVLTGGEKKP
Text: We generated a series of compounds to investigate whether modification of the SC4 2-hydroxybiphenyl LHS fragment affects isoform selectivity, some of which (MSG008-MSG011) are presented in Table 1. We also synthesised compound MSG012 (example I-3-54 [32]), which was reported to activate α2β2γ1 with ∼100-fold greater potency compared with α1β1γ1. MSG012 differs from SC4 by substitution of the 2-hydroxyphenyl LHS fragment with 3-cyclohexen-4-yl-1-carboxylic acid, and 2-methylbenzoic acid RHS fragment with 1-hydroxy-N,N-dimethylcyclohexan-4-yl-1-carboxamide. Our initial screen involved measuring the activity of recombinant human GST-AMPK complexes expressed in HEK293T/17 cells and immobilised on glutathione-Sepharose (Supplementary Figure S1). Enzyme activity was measured by radiolabelling the synthetic SAMS peptide substrate in the absence or presence of 1 µM compound. Consistent with our previous characterisation, SC4 activated α1β1γ1, α2β1γ1 and α2β2γ1 >2.3-fold, and weakly activated α1β2γ1 1.3-fold (Figure 1A). […] The γ isoform had little influence on AMPK activation by MSG011 as most γ2 and γ3 complexes were activated >2.2-fold at 1 µM, with α1β2γ2 being the only exception (1.6-fold activation). […] Accordingly, MSG010, MSG011 and MSG012 can be classified as pan AMPK activators.
as §1
AMPK activity was determined by phosphorylation of the SAMS peptide (Purar Chemicals, sequence: NH2-HMRSAMSGLHLVKRR-COOH) in a 25 µl reaction volume containing 100 µM SAMS peptide, 5 mM MgCl2, 200 µM ATP, [γ-^32P]-ATP (PerkinElmer) and assay buffer (50 mM HEPES pH 7.4, 1 mM DTT and 0.02% (v/v) Tween-20) and purified AMPK. Phosphotransferase activity was conducted at 30°C for 10 min and reactions were quenched by spotting 15 µl onto phosphocellulose ion-exchange chromatography paper (made in-house), followed by repeated washes in 1% H3PO4 (Merck Millipore). Ultima Gold liquid scintillation fluid (5 ml; PerkinElmer) was added to vials containing dried phosphocellulose papers, and the level of ^32P-transfer to the SAMS peptide was determined using a Tri-Carb 2900TR liquid scintillation counter (PerkinElmer).

α2β2γ1 AMPK = system: α2β2γ1 AMPK; design: method as in earlier work; conditions: reported for example I-3-54; cited from earlier work
human GST-AMPK α2β2γ1 = molecular target: T2, human GST-AMPK α2β2γ1 (Homo sapiens, UniProt O43741+P54646); experiment: Radiolabel SAMS kinase assay, GST-AMPK from HEK293T/17 cells immobilised on glutathione-Sepharose; type: biochemical
T2 construct: triply transfected with full-length AMPK α1 or α2 (NH2-terminal GST fusion, pDEST27 vector); full-length AMPK α1 or α2 (NH2-terminal GST fusion, pDEST27 vector), β1 or β2 (COOH-terminal FLAG fusion, pcDNA3.1 vector); FLAG (C); made in house; host or cells: HEK293T/17 cells, transient triple transfection
T2 sequence (P54646 whole entry, the tested form may be a part): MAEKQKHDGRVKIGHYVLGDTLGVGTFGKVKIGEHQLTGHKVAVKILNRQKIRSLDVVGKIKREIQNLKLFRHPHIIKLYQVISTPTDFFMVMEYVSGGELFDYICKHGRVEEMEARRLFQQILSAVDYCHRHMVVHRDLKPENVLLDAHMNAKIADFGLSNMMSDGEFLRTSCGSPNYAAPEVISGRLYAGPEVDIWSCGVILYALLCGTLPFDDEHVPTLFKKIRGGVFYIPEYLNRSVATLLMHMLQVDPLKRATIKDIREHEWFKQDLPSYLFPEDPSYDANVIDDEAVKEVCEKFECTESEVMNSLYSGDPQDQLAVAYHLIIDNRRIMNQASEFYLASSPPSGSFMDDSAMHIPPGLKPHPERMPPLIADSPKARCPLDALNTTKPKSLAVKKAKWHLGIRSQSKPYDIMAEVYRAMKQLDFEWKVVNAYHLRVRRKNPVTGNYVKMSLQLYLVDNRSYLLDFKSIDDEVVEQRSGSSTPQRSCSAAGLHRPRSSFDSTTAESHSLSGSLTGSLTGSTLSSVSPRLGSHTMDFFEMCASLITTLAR
T2 sequence (O43741 whole entry, the tested form may be a part): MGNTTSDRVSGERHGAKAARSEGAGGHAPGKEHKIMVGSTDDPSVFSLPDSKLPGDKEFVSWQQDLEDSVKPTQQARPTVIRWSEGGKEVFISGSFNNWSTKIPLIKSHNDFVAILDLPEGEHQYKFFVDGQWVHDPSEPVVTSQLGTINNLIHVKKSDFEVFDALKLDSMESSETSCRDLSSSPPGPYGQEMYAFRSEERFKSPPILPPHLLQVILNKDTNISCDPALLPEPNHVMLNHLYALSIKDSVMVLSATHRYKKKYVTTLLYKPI
T2 sequence (P54619 whole entry partner, the tested form may be a part): as the sequence (P54619 whole entry partner, the tested form may be a part) above

human GST-AMPK α2β1γ1 = molecular target: T3, human GST-AMPK α2β1γ1 (Homo sapiens, UniProt P54646+Q9Y478); experiment: as above; type: biochemical
T3 construct: triply transfected with full-length AMPK α1 or α2 (NH2-terminal GST fusion, pDEST27 vector); full-length AMPK α1 or α2 (NH2-terminal GST fusion, pDEST27 vector), β1 or β2 (COOH-terminal FLAG fusion, pcDNA3.1 vector); FLAG (C); made in house; host or cells: HEK293T/17 cells, transient triple transfection
T3 sequence (P54646 whole entry, the tested form may be a part): as the sequence (P54646 whole entry, the tested form may be a part) above
T3 sequence (Q9Y478 whole entry, the tested form may be a part): as the sequence (Q9Y478 whole entry, the tested form may be a part) above
T3 sequence (P54619 whole entry partner, the tested form may be a part): as the sequence (P54619 whole entry partner, the tested form may be a part) above

human GST-AMPK α1β2γ1 = molecular target: T4, human GST-AMPK α1β2γ1 (Homo sapiens, UniProt O43741+Q13131); experiment: as above; type: biochemical
T4 construct: triply transfected with full-length AMPK α1 or α2 (NH2-terminal GST fusion, pDEST27 vector); full-length AMPK α1 or α2 (NH2-terminal GST fusion, pDEST27 vector), β1 or β2 (COOH-terminal FLAG fusion, pcDNA3.1 vector); FLAG (C); made in house; host or cells: HEK293T/17 cells, transient triple transfection
T4 sequence (Q13131 whole entry, the tested form may be a part): as the sequence (Q13131 whole entry, the tested form may be a part) above
T4 sequence (O43741 whole entry, the tested form may be a part): as the sequence (O43741 whole entry, the tested form may be a part) above
T4 sequence (P54619 whole entry partner, the tested form may be a part): as the sequence (P54619 whole entry partner, the tested form may be a part) above

SMILES	EC50 fold higher than previously determined by high-throughput fluorescence-based assays in solution (γ1AMPK complexes; compared with refs 17, 18)	pEC50 (γ1AMPK complexes; immobilised GST-γ1AMPK, read-out: EC50 values for γ1AMPK activation)	Max. fold activation (human GST-AMPK α1β1γ1) [fold]	pEC50 (human GST-AMPK α1β1γ1)	greater potency for α2β2γ1 compared with α1β1γ1 (α2β2γ1 AMPK) [fold]	Max. fold activation (human GST-AMPK α2β2γ1; immobilised α2β2γ1) [fold]	pEC50 (human GST-AMPK α2β2γ1; immobilised α2β2γ1, 0–30 µM activator)	Max. fold activation (human GST-AMPK α2β1γ1; immobilised α2β1γ1) [fold]	pEC50 (human GST-AMPK α2β1γ1; immobilised α2β1γ1, 0–30 µM activator)	Max. fold activation (human GST-AMPK α1β2γ1; immobilised α1β2γ1) [fold]	pEC50 (human GST-AMPK α1β2γ1; immobilised α1β2γ1, 0–30 µM activator)
OCC1(c2ccc(-c3cc4nc(O[C@@H]5CO[C@H]6[C@@H]5OC[C@H]6O)[nH]c4cc3Cl)cc2)CC1 [PF-739, reference compound]	100–1000 fold	5.70	1.7	5.70	–	–	–	–	–	–	–
CN(C)C(=O)C1(O)CCC(Oc2nc3nc(-c4ccc(C5=CCC(C(=O)O)CC5)cc4)c(Cl)cc3[nH]2)CC1 (stereo not shown) [MSG012, 4′-(6-Chloro-2-(((1s,4s)-4-(dimethylcarbamoyl)-4-hydroxycyclohexyl)oxy)-1H-imidazo[4,5-b]pyridin-5-yl)-2,3,4,5-tetrahydro-[1,1′-biphenyl]-4-carboxylic acid]	–	–	1.9	6.99	~100	2.9	6.48	6.1	6.48	1.9	6.63
